Assay results published in patent publication US10052306B2 (LUC THERAPEUTICS, INC., priority 2013, dated 2018).

Molecular target: NR1/NR2B (Homo sapiens (Human), UniProt Q05586+Q13224)
Assay: Cell assay: FDSS Ca2+ influx inhibition in HEK293 cells expressing NR1/NR2B;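 also: Fluo-8 Ca2+ signal read on Hamamatsu FDSS 6000 after glutamate, glycine and Ca2+ challenge following 10 min compound preincubation, end/baseline fluorescence ratio compared with MK801 control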
Conditions: Ca2+ influx
[1] = NR2B NAM IC50, HEK293 cells expressing NR1/NR2B
[2] = Binned Activity, HEK293 cells expressing NR1/NR2B, binned NR2B NAM IC50

NR1/NR2B, sequence (Q13224 27-1484, other chains not shown): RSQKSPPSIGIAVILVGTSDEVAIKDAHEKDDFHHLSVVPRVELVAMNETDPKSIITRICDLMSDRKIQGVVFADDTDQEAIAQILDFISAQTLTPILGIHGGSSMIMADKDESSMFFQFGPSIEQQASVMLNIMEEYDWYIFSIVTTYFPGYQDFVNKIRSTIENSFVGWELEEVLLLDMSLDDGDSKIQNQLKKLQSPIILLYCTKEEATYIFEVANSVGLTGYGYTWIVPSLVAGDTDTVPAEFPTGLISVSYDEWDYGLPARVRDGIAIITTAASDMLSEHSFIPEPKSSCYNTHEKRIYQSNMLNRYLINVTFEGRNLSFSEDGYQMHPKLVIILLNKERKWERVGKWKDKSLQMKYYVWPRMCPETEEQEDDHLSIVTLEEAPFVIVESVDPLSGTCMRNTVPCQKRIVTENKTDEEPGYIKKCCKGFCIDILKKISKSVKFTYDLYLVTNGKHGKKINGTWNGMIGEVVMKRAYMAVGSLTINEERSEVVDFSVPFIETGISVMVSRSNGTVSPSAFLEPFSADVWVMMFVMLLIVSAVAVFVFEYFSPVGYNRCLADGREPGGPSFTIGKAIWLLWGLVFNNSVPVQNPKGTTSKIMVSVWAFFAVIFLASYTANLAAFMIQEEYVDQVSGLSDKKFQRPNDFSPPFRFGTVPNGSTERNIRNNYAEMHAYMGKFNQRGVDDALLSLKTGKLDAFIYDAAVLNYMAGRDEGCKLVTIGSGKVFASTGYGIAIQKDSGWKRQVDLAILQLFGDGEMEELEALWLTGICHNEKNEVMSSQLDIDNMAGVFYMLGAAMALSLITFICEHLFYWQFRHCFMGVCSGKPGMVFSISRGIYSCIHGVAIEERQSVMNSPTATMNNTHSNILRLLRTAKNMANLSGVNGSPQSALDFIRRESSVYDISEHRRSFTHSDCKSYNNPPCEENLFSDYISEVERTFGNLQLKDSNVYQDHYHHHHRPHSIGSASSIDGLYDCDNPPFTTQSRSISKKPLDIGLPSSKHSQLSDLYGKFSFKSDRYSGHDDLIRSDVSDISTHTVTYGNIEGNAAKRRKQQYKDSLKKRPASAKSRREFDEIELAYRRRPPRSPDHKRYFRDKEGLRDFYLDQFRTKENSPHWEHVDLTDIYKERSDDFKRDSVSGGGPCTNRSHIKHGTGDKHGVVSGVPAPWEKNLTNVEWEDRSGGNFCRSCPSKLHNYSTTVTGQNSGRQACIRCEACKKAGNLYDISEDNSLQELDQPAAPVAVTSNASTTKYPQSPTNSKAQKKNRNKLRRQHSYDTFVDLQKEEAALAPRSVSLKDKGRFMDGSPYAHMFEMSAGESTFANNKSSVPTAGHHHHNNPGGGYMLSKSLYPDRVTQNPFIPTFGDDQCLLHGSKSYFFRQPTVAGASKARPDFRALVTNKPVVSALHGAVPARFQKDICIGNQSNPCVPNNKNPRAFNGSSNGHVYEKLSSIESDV

| IC50 [1] [nM] | IC50 [2] [nM] | SMILES |
| --- | --- | --- |
| 50.3 | – | Oc1ccc(C(O)CN2C[C@@H]3C[C@@](O)(Cc4ccccc4Cl)C[C@@H]3C2)nc1 (mixture of isomers) [Example 246, rac-(3aR,5r,6aS)-5-(2-chlorobenzyl)-2-(2-hydroxy-2-(5-hydroxypyridin-2-yl)ethyl)octahydrocyclo-penta[c]pyrrol-5-ol] |
| 43 | < 100 | CC(O)(CN1CC2CC(O)(Cc3ccccc3)CC2C1)c1ccc(O)cc1 (racemic) [Example 280, rac-(3aR,5R,6aS)-5-benzyl-2-[2-hydroxy-2-(4-hydroxyphenyl)propyl]-octahydrocyclopenta[c] pyrrol-5-ol] |
| ≥ 10000 | > 10000 | Oc1ccc(C(O)CN2C[C@@H]3C[C@@](O)(Cc4ccccc4)C[C@@H]3C2)cn1 (mixture of isomers) [Example 181, rac-5-{2-[(3aR,5R,6aS)-5-benzyl-5-hydroxy-octahydrocyclopenta[c]pyrrol-2-yl]-1-hydroxyethyl}pyridin-2-ol] |
| ≥ 10000 | > 10000 | CC(C)(O)c1ccc(C(O)CN2C[C@@H]3C[C@@](O)(Cc4ccccc4)C[C@@H]3C2)cc1 (mixture of isomers) [Example 139, rac-(3aR,5r,6aS)-5-benzyl-2-(2-hydroxy-2-(4-(2-hydroxypropan-2-yl)phenyl)ethyl)octahydro-cyclopenta[c]pyrrol-5-ol] |
| 98.1 | – | Oc1c(F)cc(C(O)CN2C[C@@H]3C[C@@](O)(Cc4ccccc4)C[C@@H]3C2)cc1F (mixture of isomers) [Example 160, rac-(3aR,5r,6aS)-5-benzyl-2-(2-(3,5-difluoro-4-hydroxyphenyl)-2-hydroxyethyl)octahydro-cyclopenta[c]pyrrol-5-ol] |
| 26.8 | < 100 | Oc1ccc(C(O)CN2C[C@@H]3C[C@@](O)(Cc4ccccc4)C[C@@H]3C2)nc1 (mixture of isomers) [Example 144, rac-(3aR,5r,6aS)-5-benzyl-2-(2-hydroxy-2-(5-hydroxypyridin-2-yl)ethyl)octahydrocyclo-penta[c]pyrrol-5-ol] |
| 40.2 | – | O=C1CCc2cc(C(O)CN3C[C@@H]4C[C@@](O)(Cc5ccccc5)C[C@@H]4C3)ccc2N1 (mixture of isomers) [Example 153, rac-6-(2-((3aR,5r,6aS)-5-benzyl-5-hydroxyhexahydrocyclo-penta[c]pyrrol-2(1H)-yl)-1-hydroxyethyl)-3,4-dihydroquinolin-2(1H)-one] |
| 32.4 | – | CO[C@@]1(Cc2ccccc2)C[C@H]2CN(CC(O)c3ccc(O)cc3)C[C@H]2C1 (mixture of isomers) [Example 176, rac-4-(2-((3aR,5r,6aS)-5-benzyl-5-methoxyhexahydrocyclo-penta[c]pyrrol-2(1H)-yl)-1-hydroxyethyl)phenol] |
| 15.5 | < 100 | Oc1ccc(C(O)CN2C[C@@H]3C[C@@](O)(Cc4ccccc4F)C[C@@H]3C2)cc1 (mixture of isomers) [Example 229, rac-(3aR,5r,6aS)-5-(2-fluorobenzyl)-2-(2-hydroxy-2-(4-hy-droxyphenyl)ethyl)octa-hydrocyclopenta[c] pyrrol-5-ol] |
| 36 | – | Oc1ccc(C(O)CN2C[C@@H]3C[C@@](O)(Cc4ccc(C(F)(F)F)cc4)C[C@@H]3C2)nc1 (mixture of isomers) [Example 217, rac-6-{2-[(3aR,5R,6aS)-5-hydroxy-5-{[4-(trifluoromethyl)phenyl]methyl}-octahydrocyclopenta[c]pyrrol-2-yl]-1-hydroxyethyl}pyridin-3-ol] |
| 143 | – | O=C1Cc2cc(C(O)CN3C[C@@H]4C[C@@](O)(Cc5ccccc5)C[C@@H]4C3)ccc2N1 (mixture of isomers) [Example 152, rac-5-(2-((3aR,5r,6aS)-5-benzyl-5-hydroxyhexahydrocyclo-penta[c]pyrrol-2(1H)-yl)-1-hydroxyethyl)indolin-2-one] |
| 3400 | 1000 to 10000 | Oc1cnc(C(O)CN2C[C@@H]3C[C@@](O)(Cc4ccccc4)C[C@@H]3C2)nc1 (mixture of isomers) [Example 203, rac-2-{2-[(3aR,5R,6aS)-5-benzyl-5-hydroxy-octahydrocyclopenta[c]pyrrol-2-yl]-1-hydroxyethyl}pyrimidin-5-ol] |
| 66 | – | COc1cccc(C[C@]2(O)C[C@H]3CN(CC(O)c4ccc(O)cn4)C[C@H]3C2)c1 (mixture of isomers) [Example 196, rac-((3aR,r,6aS)-2-(2-hydroxy-2-(5-hydroxypyridin-2-yl)ethyl)-5-(3-meth-oxybenzyl)octahydro-cyclopenta[c]pyrrol-5-ol] |
| 52.4 | – | O=c1[nH]c2ccc(C(O)CN3C[C@@H]4C[C@@](O)(Cc5ccccc5)C[C@@H]4C3)cc2o1 (mixture of isomers) [Example 154, rac-6-(2-((3aR,5r,6aS)-5-benzyl-5-hydroxyhexahydrocyclo-penta[c]pyrrol-2(1H)-yl)-1-hydroxyethyl)benzo[d] oxazol-2(3H)-one] |

More lines, now with the values behind:

| SMILES | IC50 [1] [nM] | IC50 [2] [nM] |
| --- | --- | --- |
| Oc1ccc(C(O)CN2C[C@@H]3C[C@@](O)(Cc4ccc(F)cc4)C[C@@H]3C2)cc1F (mixture of isomers) [Example 171, rac-(3aR,5r,6aS)-2-(2-(3-fluoro-4-hydroxyphenyl)-2-hydroxyethyl)-5-(4-fluorobenzyl)octahydro-cyclopenta[c]pyrrol-5-ol] | 22.1 | – |
| Cc1ccc(NC(=O)N2C[C@@H]3C[C@@](O)(c4ccccc4)C[C@@H]3C2)c(C)c1 [Example 47] | ≥ 10000 | > 10000 |
| COc1cccc(C[C@]2(O)C[C@H]3CN(CC(O)c4ccc(O)c(F)n4)C[C@H]3C2)c1 (mixture of isomers) [Example 201, rac-(3aR,5r,6aS)-2-(2-(6-fluoro-5-hydroxypyridin-2-yl)-2-hydroxyethyl)-5-(3-methoxy-benzyl)octahydro-cyclopenta[c]pyrrol-5-ol] | 382 | – |
| Oc1ccc(C(O)CN2C[C@@H]3C[C@@](O)(Cc4cccc(F)c4F)C[C@@H]3C2)nc1 (mixture of isomers) [Example 248, rac-(3aR,5r,6aS)-5-(2,3-difluorobenzyl)-2-(2-hydroxy-2-(5-hydroxypyridin-2-yl)ethyl)octahydrocyclo-penta[c]pyrrol-5-ol] | 47.6 | – |
| Oc1ccc(C(O)CN2C[C@@H]3C[C@@](O)(Cc4ccc(C(F)(F)F)cc4)C[C@@H]3C2)cc1 (mixture of isomers) [Example 224, rac-(3aR,5R,6aS)-2-[2-hydroxy-2-(4-hydroxyphenyl)ethyl]-5-{[4-(trifluoromethyl)phenyl]methyl}-octahydrocyclopenta[c] pyrrol-5-ol] | 84.8 | – |
| COc1cccc([C@]2(O)C[C@H]3CN(C(=O)Nc4cccnc4)C[C@H]3C2)c1 [Cmpd 46, 5-hydroxy-5-(3-methoxyphenyl)-N-(pyridin-3-yl)-octahydrocyclopenta[c] pyrrole-2-carboxamide] | – | > 10000 |
| N#Cc1cccc(NC(=O)N2C[C@@H]3C[C@@](O)(Cc4ccccc4)C[C@@H]3C2)c1 [Example 123, (3aR,5r,6aS)-5-benzyl-N-(3-cyanophenyl)-5-hydroxyhexahydrocyclo-penta[c]pyrrole-2(1H)-carboxamide] | ≥ 10000 | > 10000 |
| OC(CN1C[C@H]2C[C@@H](c3ccccc3)C[C@H]2C1)c1cccc(C(F)(F)F)c1 (mixture of isomers) [Example 116, rac-2-(5-phenylhexahydrocyclo-penta[c]pyrrol-2(1H)-yl)-1-(3-(trifluoromethyl)phenyl) ethanol] | ≥ 10000 | > 10000 |
| COc1cccc(NC(=O)N2C[C@@H]3C[C@@](O)(c4ccc(C(C)(C)C)cc4)C[C@@H]3C2)c1 [Example 51] | ≥ 10000 | > 10000 |
| COc1cccc([C@]2(O)C[C@H]3CN(C(=O)Nc4cccc(Cl)c4)C[C@H]3C2)c1 [Example 15] | – | > 10000 |
| N#Cc1cccc(NC(=O)N2C[C@@H]3C[C@@](O)(c4ccc(F)cc4)C[C@@H]3C2)c1 [Example 40] | – | > 10000 |
| CC(C(=O)c1ccc(O)cc1)N1C[C@@H]2C[C@@](O)(c3ccccc3)C[C@@H]2C1 (mixture of isomers) [Example 90, rac-2-(5-hydroxy-5-phenylhexahydrocyclo-penta[c]pyrrol-2(1H)-yl)-1-(4-hydroxyphenyl)propan-1-one] | ≥ 10000 | > 10000 |
| CC(C(=O)c1ccc(O)cc1)N1C[C@H]2CC(Cc3ccccc3)C[C@H]2C1 (mixture of isomers) [Example 296, rac-2-((3aR,6aS)-5-benzylhexahydrocyclo-penta[c]pyrrol-2(1H)-yl)-1-(4-hydroxyphenyl)propan-1-one] | 125 | 100 to 1000 |
| CO[C@@]1(Cc2ccccc2)C[C@H]2CN(CC(O)c3ccc(O)c(F)c3)C[C@H]2C1 (mixture of isomers) [Example 175, rac-4-(2-((3aR,5r,6aS)-5-benzyl-5-methoxyhexahydrocyclo-penta[c]pyrrol-2(1H)-yl)-1-hydroxyethyl)-2-fluorophenol] | 32.4 | – |
| COc1cccc([C@]2(O)C[C@H]3CN(CC(O)c4ccccc4)C[C@H]3C2)c1 (mixture of isomers) [Example 60, rac-2-(2-hydroxy-2-phenylethyl)-5-(3-methoxyphenyl)-octahydrocyclopenta[c] pyrrol-5-ol] | ≥ 10000 | > 10000 |
| COc1cccc(C[C@]2(O)C[C@H]3CN(CC(O)c4ccc(O)cc4)C[C@H]3C2)c1 (mixture of isomers) [Example 195, rac-(3aR,5r,6aS)-2-(2-hydroxy-2-(4-hydroxyphenyl)ethyl)-5-(3-methoxy-benzyl)octahydro-cyclopenta[c]pyrrol-5-ol] | 28.7 | – |
| Oc1ccc(C(O)CN2CC3(C2)CC(O)(Cc2ccccc2)C3)cc1 (racemic) [Example 343, rac-6-benzyl-2-(2-hydroxy-2-(4-hydroxyphenyl)ethyl)-2-azaspiro[3.3]heptan-6-ol] | 506 | – |
| Oc1ccc(C(O)CN2C[C@H]3CC(Cc4ccccc4)C[C@H]3C2)cc1 (mixture of isomers) [Example 300, rac-4-(2-((3aR,6aS)-5-benzylhexahydrocyclo-penta[c]pyrrol-2(1H)-yl)-1-hydroxyethyl) phenol] | 13.9 | < 100 |
| CC(C(O)c1ccc(O)cc1)N1C[C@@H]2C[C@](F)(Cc3ccccc3)C[C@@H]2C1 (mixture of isomers) [Example 318, rac-4-(2-((3aR,5s,6aS)-5-benzyl-5-fluoro-hexahydrocyclopen-ta[c]pyrrol-2(1H)-yl)-1-hydroxypropyl)phenol] | 12800 | – |
| Cc1ccccc1[C@]1(O)C[C@H]2CN(C(=O)Nc3ccc(F)cc3)C[C@H]2C1 [Example 13] | ≥ 10000 | > 10000 |
